The text below walks through data of US6010876A, “Clavanins” (The Regents of the University of California, priority 1996, dated 2000).

In assay [1] the test system is E. coli BAS 894. The experiment in a line: radial diffusion assay, minimal bactericidal concentration. To be noted: X-intercept of radial diffusion assay, pH 6.5. It counts as cell-based. How it is done:
(§1) In more detail, the filtrates (≈3.5 mg of protein by BCA) were concentrated to 2 ml by vacuum centrifugation in a Speed Vac Concentrator (Savant Instruments, Hicksville, N.Y.). Gel permeation chromatography was performed on a 1.2×65 cm BioGel P-10 gel permeation column with 5% acetic acid. Preparative continuous acid-urea PAGE electrophoresis was performed as described by Harwig, S. S. L. et al., Anal Biochem (1993) 208:382. Active fractions were pooled and purified by RP-HPLC a 4.6×250 mm Vydac C18 column, using various linear gradients of acetonitrile in 0.1% trifluoroacetic acid (TFA) or […],) heptafluorobutyric acid (HFBA). Throughout this multistep procedure, fractions were lyophilized, concentrated and tested for antimicrobial activity against Listeria monocytogenes strain EGD by a radial diffusion technique described in Lehrer, R. I. et al., J Immunol Methods (1991) 137:167. In these assays, the underlay gels contained 9 mM sodium phosphate and 1 mM sodium citrate buffer, 0.30 mg/ml of trypticase soy broth powder (BBL, Cockeysville, Md.) and […] at a final pH of 6.5.
(§2) In addition to Cecropin P1 and Magainin 1, the activity of Clavanin A(K) was also tested. Clavanin A(K) is identical to Clavanin A except that all of the histidine residues are replaced by lysine. […] The data are provided as minimal bacteriocidal concentrations expressed in μg/ml which are the X-intercepts of radial diffusion assays performed at pH 6.5 in an underlay that contained 10 mM buffer ([…]), 1% agarose and 0.3 mg trypticase soy powder/ml.

Assay [2] relates to E. coli mcr 106. The description is as above. It counts as cell-based. The following applies: X-intercept of radial diffusion assay, pH 6.5. As to the method: as §1, §2
For assay [3], the system named is E. faecalis CDC 21 (VR). Described as above. It counts as cell-based. The following applies: X-intercept of radial diffusion assay, pH 6.5. As to the method:
as §1, §2

The subject of assay [4] is E. faecium 94.132 (VR). Described as above. The following applies: X-intercept of radial diffusion assay, pH 6.5. The assay is classed as cell-based. How it is done: as §1, §2
In assay [5] the test system is E. faecium. The description is as above. The assay is classed as cell-based. To be noted: E. faecium (strain not given); X-intercept of radial diffusion assay, pH 6.5. As to the method: as §1, §2
In assay [6] the test system is K. pneumoniae 2270. Described as above. It counts as cell-based. To be noted: X-intercept of radial diffusion assay, pH 6.5. How it is done:
as §1, §2

The test system of assay [7] is MRSA 28841. The assay is described as above. The assay is classed as cell-based. The following applies: X-intercept of radial diffusion assay, pH 6.5. As to the method:
as §1, §2

The test system of assay [8] is MRSA 30371. The assay is described as above. It counts as cell-based. To be noted: X-intercept of radial diffusion assay, pH 6.5. As to the method: as §1, §2
Assay [9] relates to P. aeruginosa MR 2133. Described as above. To be noted: X-intercept of radial diffusion assay, pH 6.5. The assay is classed as cell-based. As to the method:
as §1, §2

Assay [10] relates to P. aeruginosa MR 3007. The assay is described as above. It counts as cell-based. The following applies: X-intercept of radial diffusion assay, pH 6.5. How it is done: as §1, §2
Assay [11] has as its system P. aeruginosa SBI-N. The assay is described as above. The assay is classed as cell-based. The following applies: X-intercept of radial diffusion assay, pH 6.5. As to the method:
as §1, §2

The test system of assay [12] is S. aureus 930918-3. The assay is described as above. It counts as cell-based. To be noted: X-intercept of radial diffusion assay, pH 6.5. How it is done: as §1, §2
Assay [13] has as its system S. typhimurium 14028s. Described as above. The assay is classed as cell-based. To be noted: X-intercept of radial diffusion assay, pH 6.5. How it is done:
as §1, §2

The test system of assay [14] is S. typhimurium 7953s. The description is as above. The following applies: X-intercept of radial diffusion assay, pH 6.5. The assay is classed as cell-based. As to the method: as §1, §2
For assay [15], the system named is L. monocytogenes EGD. In words: radial diffusion assay. It counts as cell-based, Listeria monocytogenes. The following applies: for potency relative to Clavanins A and B: L. monocytogenes Strain EGD, radial diffusion (FIG. 5). How it is done:
as §1, §2
(§3) The effect of pH on antimicrobial activity against several organisms was tested in a pH range wherein histidine becomes comparably charged to lysine. FIGS. 6-8 show the results for native or synthetic Clavanin A and synthetic Clavanin A(K) using defensin NP-2 as a control, with respect to L. monocytogenes, E. coli, and C. albicans respectively. The radial diffusion assays were conducted as described in Examples 1 and 3 above.

Assay [16] relates to E. coli ML-35p. The experiment in a line: radial diffusion assay. It counts as cell-based. The following applies: for potency relative to Clavanins A and B: E. coli ML-35P, radial diffusion (FIG. 5). As to the method: as §1, §2, §3

In the case of “Cecropin P1: known antimicrobial peptide used for comparison (SWLSKTAKKLENSAKKRISEGIAIAIQGGPR; Cecropin-P1; UniProt P14661 14-44, looked up)”, the minimal bacteriocidal concentration was 0.41 µg/mL in assay [1]; 0.54 µg/mL in assay [2]; more than 200 µg/mL in [3]; 7.5 µg/mL in assay [4]; 6.5 µg/mL in assay [5]; 0.70 µg/mL in assay [6]. The minimal bacteriocidal concentration is more than 200 µg/mL in assay [7]; more than 200 µg/mL in assay [8]; 0.51 µg/mL in [9]; 0.71 µg/mL in assay [10]; 0.44 µg/mL in assay [11]; more than 200 µg/mL in assay [12]. Also, the minimal bacteriocidal concentration turned out to be 0.72 µg/mL in assay [13]; 0.43 µg/mL in assay [14]; 6.0 µg/mL in [15] (L. monocytogenes EGD, X-intercept of radial diffusion assay, pH 6.5); 0.64 µg/mL in [16] (E. coli ML-35p, X-intercept of radial diffusion assay, pH 6.5).

Turning to “AFKLL GRIIH HVGNF VY'GFS HVF* [Clavanin D]”, the “potency relative to Clavanins A and B” value in [15] and in assay [16] was 3-5 fold each time.

For the substance “VFHLL GKIIH HVGNF VY'GFS HVF* [Clavanin C]”, the “potency relative to Clavanins A and B” value in assay [15] and in assay [16] was 3-5 fold each time.
